In patent US20060258007A1, “Regulated vectors for selection of cells exhibiting desired phenotypes” (priority 2005, published 2006):

Tested on: cells expressing the HSV-TK gene product
Test: Negative selection of pIRES-MAB-TK cultures with ganciclovir
Type: cell-based, Chinese Hamster
Conditions: 5 days in the presence of ganciclovir, then an additional 10 days in growth media alone
Protocol: For example, pIRES-MAB-TK cultures are grown for 5 days in the presence of the prodrug ganciclovir (Sigma), which kills cells expressing the HSV-TK gene product. After 5 days of negative selection, cells are grown for an additional 10 days in growth media alone at which time greater than 95% of cells die off. Resistant clones are then picked and expanded in 10 cm petri dishes. Cells are grown for 3 weeks, after which time a portion is reanalyzed for recombinant protein expression, for example, by western blot, RT-PCR, and/or PCR. DNA is analyzed for the presence of the pIRES-pro-TK or pIRES-MAB-TK vector by PCR using any set of primers that can specifically detect the presence or absence of the pIRES vector, for example, according to methods as previously described in Grasso et al. (1998).

Nc1nc(O)c2ncn(COC(CO)CO)c2n1 [ganciclovir]
cells die off: greater than 95%
